Test system: female F344 rats
Assay: Effect on bone density (oophorectomized rats, femur, DXA)
Type: in vivo, rat
Details: 25 mg/kg orally once a day, six days a week, six weeks, Dunnett's test
Protocol: Eight to 12 week old female F344 rats were purchased from Charles River Laboratories Japan, Inc. and used in the following experiment.
This test was conducted at N=8. Rats were anesthetized by the intraperitoneal administration of 40 mg/kg of Somnopentyl (purchased from Kyoritsu Seiyaku Corporation), followed by oophorectomy.
From the day after surgery, a control group received a 0.5% methyl cellulose solution (purchased from Wako Pure Chemical Industries, Ltd., Cat. No. 133-14255) alone, whereas another group received a suspension of the test compound in this solution (0.5% methyl cellulose solution), for the test.
The administration was performed orally once a day, six days a week. Six weeks after administration, the rats were euthanized by removal of whole blood from the lower abdominal aorta under Somnopentyl anesthesia, and the left and right femur was excised.
After removal of soft tissues, the bone density of the femur thus excised was measured (apparatus: DXA apparatus DCS-600R manufactured by Aloka Co., Ltd.). The bone density was assessed in the whole femur as well as in three equal sections of the whole femur, namely the proximal end, the shaft, and the distal end.
The Dunnett's test was used in certification.

With `COCC(=O)N1CCC(c2oc3c(C)c(O)ccc3c(=O)c2C)CC1` [Example 11, 7-Hydroxy-2-[1-(methoxyacetyl)piperidin-4-yl]-3,8-dimethyl-4H-chromen-4-one] the “bone density of the femur compared with the control group” value was “significantly increased the bone density”.
